Measurements as given in US8119655B2, “Kinase inhibitors” (Takeda Pharmaceutical Company Limited, priority 2005, dated 2012).

Each compound was assayed against T1, AIK (Homo sapiens, UniProt O14965) (assay: Determination of inhibition of AIK by direct fluorescence polarization (IMAP)). Settings: FP assay, 2.5 μM ATP, 2.5 nM AIK; read-out: IC50 of Exemplified Compounds Against AIK.
T1 sequence (O14965 1-403): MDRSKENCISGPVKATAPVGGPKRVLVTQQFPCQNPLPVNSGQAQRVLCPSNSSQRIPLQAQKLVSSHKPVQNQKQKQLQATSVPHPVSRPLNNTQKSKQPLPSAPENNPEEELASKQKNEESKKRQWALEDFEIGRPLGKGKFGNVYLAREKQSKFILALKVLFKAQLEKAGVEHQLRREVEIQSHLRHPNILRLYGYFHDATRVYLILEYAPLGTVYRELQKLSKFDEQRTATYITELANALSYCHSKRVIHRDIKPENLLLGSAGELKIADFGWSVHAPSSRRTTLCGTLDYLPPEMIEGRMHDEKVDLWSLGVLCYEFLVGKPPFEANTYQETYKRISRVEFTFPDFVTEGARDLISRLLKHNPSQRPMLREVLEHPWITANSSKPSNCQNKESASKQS
Assay type: biochemical
Experimental: The inhibitory properties of compounds relative to AIK may be determined by the Direct Fluorescence Polarization detection method (FP) using a Greiner small volume black 384-well-plate format under the following reaction conditions: 50 mM Hepes pH 7.3, 10 mM MgCl2, 10 mM NaCl, 1 mM DTT, 0.01% Brij35, 100 nM Fluorescein-LRRASLG peptide (provided by SYNPEP), 5% DMSO, 2.5 μM ATP. Detection of the reaction product is performed by addition of IMAP binding reagent (Molecular Devices). Reaction product may be determined quantitatively by FP using an Analyst HT plate reader (Molecular Devices) with an excitation wavelength at 485 nm and emission at 530 nm and using a Fluorescein 505 dichroic mirror.
The assay reaction may be initiated as follows: 2 ul of (3×) 300 nM Fl-Peptide/7.5 uM ATP was added to each well of the plate, followed by the addition of 2 ul of (3×) inhibitor (2.5 fold serial dilutions for 11 data points for each inhibitor) containing 15% DMSO. 2 ul of (3×) 7.5 nM AIK solution may be added to initiate the reaction (final enzyme concentration was 2.5 nM for AIK). The reaction mixture may then be incubated at room temperature for 45 min, and quenched and developed by addition of 20 ul of 1 to 400 diluted IMAP binding reagent in 1× proprietary IMAP binding buffer. Fluorescence polarization readings of the resulting reaction mixtures may be measured after a 60-minute incubation at room temperature.
IC50 values may be calculated by non-linear curve fitting of the compound concentrations and fluorescent polarization values to the standard IC50 equation.

SMILES | IC50 [nM]
CCS(=O)(=O)c1cccc(-c2ccc(C)c3[nH]c4ncccc4c23)c1 [Compound 17, 5-(3-(ethylsulfonyl)phenyl)-8-methyl-9H-pyrido[2,3-b]indole] | 20 to 50
CCOc1ncc(-c2cccc(S(=O)(=O)CC)c2)c2c1[nH]c1ncc(C)cc12 [Compound 50, 5-(3-Ethanesulfonyl-phenyl)-8-ethoxy-3-methyl-9H-dipyrido[2,3-b;4′,3′-d]pyrrole] | < 20
CCS(=O)(=O)c1cccc(-c2cnc(OCC3CCN(C)CC3)c3[nH]c4ncc(C)cc4c23)c1 [Compound 53, 5-(3-Ethanesulfonyl-phenyl)-3-methyl-8-(1-methyl-piperidin-4-ylmethoxy)-9H-dipyrido[2,3-b;4′,3′-d]pyrrole] | < 20
CCS(=O)(=O)c1cccc(-c2cc(C(=O)NCCN(C)C)c(C)c3[nH]c4ncc(C)cc4c23)c1 [Compound 87, N-(2-(dimethylamino)ethyl)-5-(3-(ethylsulfonyl)phenyl)-3,8-dimethyl-9H-pyrido[2,3-b]indole-7-carboxamide] | 20 to 50
CCS(=O)(=O)c1cccc(-c2cc(C(=O)NCCOCCO)c(C)c3[nH]c4ncc(C)cc4c23)c1 [Compound 110] | < 20
Cc1cnc2[nH]c3c(C)c(C(=O)NCCN(C)C)cc(-c4cccc(NC(=O)C5CC5)c4)c3c2c1 [Compound 111, 5-(3-(cyclopropanecarboxamido)phenyl)-N-(2-(dimethylamino)ethyl)-3,8-dimethyl-9H-pyrido[2,3-b]indole-7-carboxamide] | 20 to 50
Cc1cnc2[nH]c3c(C)c(C(=O)NCCN(C)C)cc(Cl)c3c2c1 [Compound 120, 5-chloro-N-(2-(dimethylamino)ethyl)-3,8-dimethyl-9H-pyrido[2,3-b]indole-7-carboxamide] | > 100
Cc1cnc2[nH]c3c(OCC4CCN(C)CC4)ccc(Cl)c3c2c1 [Compound 175, 5-chloro-3-methyl-8-((1-methylpiperidin-4-yl)methoxy)-9H-pyrido[2,3-b]indole] | 50 to 100
CCS(=O)(=O)c1cccc(-c2ccc(OC)c3[nH]c4ncc(Cl)cc4c23)c1 [Compound 217] | < 20

The next lines start with the values.

IC50 [nM] | SMILES
< 20 | CNS(=O)(=O)c1cccc(-c2ccc(C)c3[nH]c4ncc(C)cc4c23)c1 [Compound 15, 3-(3,8-dimethyl-9H-pyrido[2,3-b]indol-5-yl)-N-methylbenzenesulfonamide]
50 to 100 | CCS(=O)(=O)c1cccc(-c2cnc(NCCN(C)C)c3[nH]c4ncc(C)cc4c23)c1 [Compound 41, N′-[5-(3-Ethanesulfonyl-phenyl)-3-methyl-9H-dipyrido[2,3-b;4′,3′-d]pyrrol-8-yl]-N,N-dimethyl-ethane-1,2-diamine]
> 100 | CCS(=O)(=O)c1cccc(-c2cnc(C#N)c3[nH]c4ncc(C)cc4c23)c1 [Compound 48, 5-(3-Ethanesulfonyl-phenyl)-3-methyl-9H-dipyrido[2,3-b;4′,3′-d]pyrrole-8-carbonitrile]
< 20 | COc1ccc(Cl)cc1Nc1ncc(C)cc1Br [Compound 154, 3-bromo-N-(5-chloro-2-methoxyphenyl)-5-methylpyridin-amine]
50 to 100 | COc1ccc(-c2cccc(NC(C)=O)c2)c2c1[nH]c1ncc(C)cc12 [Compound 161, N-(3-(8-methoxy-3-methyl-9H-pyrido[2,3-b]indol-5-yl)phenyl)acetamide]
< 20 | Cc1cnc(Nc2cc(Cl)ccc2OCC2CCN(C)CC2)c(Br)c1 [Compound 174, 3-bromo-N-(5-chloro-2-((1-methylpiperidin-4-yl)methoxy)phenyl)-5-methylpyridin-2-amine]
< 20 | CCS(=O)(=O)c1cccc(-c2ccc(OCC3CCN(C)CC3)c(I)c2)c1 [Compound 197, 4-((3′-(ethylsulfonyl)-3-iodobiphenyl-4-yloxy)methyl)-1-methylpiperidine]
20 to 50 | CCS(=O)(=O)c1cccc(-c2ccc(OCC3CCN(C)CC3)c3[nH]c4ncc(Cl)cc4c23)c1 [Compound 199, 3-chloro-5-(3-(ethylsulfonyl)phenyl)-8-((1-methylpiperidin-4-yl)methoxy)-9H-pyrido[2,3-b]indole]
< 20 | CCS(=O)(=O)c1cccc(-c2cc(F)c(OCCN(C)C)c3[nH]c4ncc(C)cc4c23)c1 [Compound 203, 2-(5-(3-(ethylsulfonyl)phenyl)-7-fluoro-3-methyl-9H-pyrido[2,3-b]indol-8-yloxy)-N,N-dimethylethanamine]
20 to 50 | CCS(=O)(=O)c1cccc(-c2cc(NC(=O)CCN(C)C)c(OC)c3[nH]c4ncc(C)cc4c23)c1 [Compound 240, 3-(dimethylamino)-N-(5-(3-(ethylsulfonyl)phenyl)-8-methoxy-3-methyl-9H-pyrido[2,3-b]indol-7-yl)propanamide]
